Assay results reported in ChEMBL document CHEMBL5257032, “Therapeutic potential of coumarins as antiviral agents” (Eur J Med Chem, 2016).
Values after ≈ are worked out from the molar mass of the structure shown.

How the values were obtained:
[1] = biological target: T1, Human immunodeficiency virus type 1 protease (Human immunodeficiency virus 1, UniProt Q72874); assay: (§1) Inhibition of HIV-1 protease
[2] = biological target: Human immunodeficiency virus type 1 protease (Human immunodeficiency virus 1) (UniProt Q72874); assay: Inhibition of HIV-1 protease relative to control; details: concentration not given here
[3] = Antiviral activity against HIV-1 infected in human MT4 cells assessed as cell survival relative to control; assay type: functional, Human immunodeficiency virus 1
Human alphaherpesvirus 1 [4] = assay: Antiviral activity against Herpes simplex virus 1 assessed as reduction in number of plaques at 0.12 mg/ml relative to control; assay type: functional; set-up: scale not given: the % may be the effect or the level left
Human alphaherpesvirus 1 [5] = assay: Antiviral activity against Herpes simplex virus 1; assay type: functional, organism-based
[6] = Cytotoxicity against African green monkey Vero cells; assay type: toxicity, cell-based; details: chlorocebus sabaeus, read-out: CD50 (the source's name)
[7] = biological target: T1, Human immunodeficiency virus type 1 protease; assay: Binding affinity to HIV-1 protease assessed as inhibition constant
[8] = system: Human immunodeficiency virus 1; assay: Antiviral activity against HIV-1 infected in human H9 cells; assay type: functional, organism-based; details: Human immunodeficiency virus 1, H9
[9] = biological target: Human immunodeficiency virus type 1 protease (Human immunodeficiency virus 1) (UniProt Q72874); assay: as §1
[10] = biological target: Human immunodeficiency virus type 1 reverse transcriptase (Human immunodeficiency virus 1, UniProt Q72547); assay: Inhibition of HIV1 reverse transcriptase
[11] = system: Human immunodeficiency virus 1; assay: Antiviral activity against HIV-1 infected in CEM-SS cells; assay type: functional, organism-based; details: Human immunodeficiency virus 1, CEM-SS
[12] = system: Human immunodeficiency virus; assay: Antiviral activity against HIV infected in human H9 cells; assay type: functional, organism-based; details: Human immunodeficiency virus 1, H9
[13] = Inhibition of HIV protease; set-up: species or system Human immunodeficiency virus
[14] = Inhibition of Hepatitis C virus NS5B polymerase; set-up: species or system Hepacivirus hominis
[15] = Binding affinity to HIV protease assessed as inhibition constant; set-up: species or system Human immunodeficiency virus
H9 = assay: Cytotoxicity against human H9 cells; assay type: functional, cell-based
[16] = Therapeutic index, ratio of IC50 for cytotoxicity against human H9 cells to EC50 for antiviral activity against HIV infected in H9 cells; assay type: toxicity, cell-based; details: read-out: Ratio IC50/EC50
[17] = system: Human immunodeficiency virus 1; assay: Antiviral activity against HIV-1 RTMDR1 infected in human MT4 cells; assay type: functional, organism-based; details: Human immunodeficiency virus 1, RTMDR1, MT4
[18] = Therapeutic index, ratio of IC50 for cytotoxicity against human H9 cells to EC50 for antiviral activity against HIV-1 infected in H9 cells; assay type: toxicity, cell-based; details: read-out: Ratio IC50/EC50
[19] = system: Human immunodeficiency virus 1; assay: Antiviral activity against HIV-1; assay type: functional, organism-based
[20] = Inhibition of HIV1 integrase; set-up: species or system Human immunodeficiency virus 1
[21] = system: Human immunodeficiency virus; assay: Antiviral activity against HIV; assay type: functional, organism-based; details: Human immunodeficiency virus 1
[22] = read-out: ED50 (the source's name)

CCCC1(CCC)CC(O)=C(C(c2ccccc2)C2CC2)C(=O)O1 (stereo not drawn)
IC50 [1]: 5000 nM

CCOC(=O)C(C(C)=O)C(c1cccc([N+](=O)[O-])c1)c1c(O)c2ccccc2oc1=O (stereo not drawn)
IC50 [1]: 0.01 nM | inhibition [2]: 25% | Survival [3]: 78%

O=C(COc1cc(=O)oc2ccccc12)NN1C(=O)CSC1c1ccc(Cl)cc1 (stereo not drawn)
Activity (Human alphaherpesvirus 1 [4]): 30% | MIC (Human alphaherpesvirus 1 [5]): 120 µg/mL (≈ 279 µM) | CC50 [6]: 20 µg/mL (≈ 46.4 µM)

CCC(c1cccc(NS(=O)(=O)c2ccc(C#N)cn2)c1)c1c(O)c2c(oc1=O)CCCC2 (stereo not drawn)
Ki [7]: 0.05 nM | EC50 [8, 22]: 950 nM

O=c1oc2ccccc2c(O)c1C(c1ccc2c(c1)OCO2)c1c(O)c2ccccc2oc1=O
ID50 [9]: 30 µM

CCCc1cc(=O)oc2c3c(c4c(c12)OC(C)(C)C=C4)O[C@H](C)[C@@H](C)[C@H]3O [(+)-CALANOLIDE B]
IC50 [10]: 15 µM | EC50 [11]: 400 nM

CC(C)(O)C(O)COc1c2ccoc2cc2oc(=O)ccc12 (stereo not drawn)
EC50 ([12]; read-out: EC50): 10 µg/mL (≈ 32.9 µM)

CC(=O)CC(c1ccccc1)c1c(O)c2ccccc2oc1=O (stereo not drawn) [WARFARIN]
IC50 [13]: 30 µM

COc1cc2oc(=O)c3c4cc(OC)c(O)cc4oc3c2cc1O
IC50 [14]: 311 µM

CCC(c1cccc(NC(=O)CCCNC(=O)OC(C)(C)C)c1)c1c(O)c2ccccc2oc1=O (stereo not drawn)
Ki [15]: 1600 nM

CC(C)=CCOc1c2occc2cc2ccc(=O)oc12 [PENTOSALEN]
IC50 (H9): > 100 µg/mL | EC50 ([12]; read-out: EC50): < 0.1 µg/mL | selectivity ratio [16]: > 1000

COc1cc2c(cc1O)oc1c3ccc(O)cc3oc(=O)c21
IC50 [14]: 174 µM

CC1(C)OC1COc1c2occc2cc2ccc(=O)oc12 (stereo not drawn)
EC50 ([12]; read-out: EC50): 2.37 µg/mL (≈ 8.28 µM)

Cc1cc(SC2=C(O)C[C@@](CCc3ccc(N)cc3)(C(C)C)OC2=O)c(C(C)(C)C)cc1CO
EC50 [1]: 200 nM

CCc1cc(=O)c2ccc3c(c2o1)[C@@H](OC(=O)[C@@]12CC[C@](C)(C(=O)O1)C2(C)C)[C@@H](OC(=O)C12CCC(C)(C(=O)O1)C2(C)C)C(C)(C)O3
EC50 [17]: 60 nM

CC(C)c1cccc(C(C)C)c1NC(=O)C(=O)CC(=O)CC(c1ccccc1)c1c(O)c2ccccc2oc1=O (stereo not drawn)
ID50 [9]: 31 µM

O=C(O)CCCCC1(c2ccccc2)CC(O)=C(SCCc2ccccc2)C(=O)O1 (stereo not drawn)
IC50 [1]: 5000 nM

CC(=O)O[C@@H]1C(OCC(C)C)c2c(ccc3ccc(=O)oc23)OC1(C)C (single isomer, unassigned)
EC50 ([8]; read-out: EC50): 2260 nM | selectivity ratio [18]: 30.6

Cc1cc(=O)oc2c3c(c4c(c12)OC(C)(C)C=C4)O[C@H](C)[C@@H](C)[C@H]3O
IC50 [10]: 19 µM

COc1cc2c(cc1O)oc(=O)c1c3cc(O)c(O)cc3oc21
IC50 [14]: 18.5 µM

CCC(c1ccccc1)c1c(O)c2c(oc1=O)CCC2 (stereo not drawn)
Ki [15]: 700 nM

CCC(c1cccc(NC(=O)CCn2ccc3ccccc32)c1)c1c(O)c2ccccc2oc1=O (stereo not drawn)
Ki [15]: 110 nM

COc1ccc(C2OC(COc3cc(=O)oc4ccccc34)=NN2C(C)=O)cc1 (stereo not drawn)
MIC (Human alphaherpesvirus 1 [5]): 130 µg/mL (≈ 330 µM)

Cc1cc(=O)oc2c1ccc1oc(C(=O)c3ccccc3)c(-c3ccccc3)c12
EC50 [19]: 1.3 nM

CCC(Cc1ccccc1)c1cc(O)c(C(CC)c2ccccc2)c(=O)o1 (stereo not drawn)
IC50 [19]: 3000 nM

COc1ccc(-c2c3c4cc(OC)c(OS(=O)(=O)O)cc4oc(=O)c3n3ccc4cc(OC)c(OC)cc4c23)cc1O
IC50 [20]: 16 µM

O=c1ccc2cc(O)c(O)cc2o1 [ESCULETIN]
EC50 [12, 22]: 2.51 µg/mL (≈ 14.1 µM)

O=c1oc2ccccc2c(O)c1Sc1c(O)c2ccccc2oc1=O
ID50 [9]: 21 µM

O=c1oc2cc(O)ccc2c(O)c1-c1ccc(O)cc1
IC50 [1]: 2000 nM

CSc1ccc(-c2cc3ccccc3oc2=O)cc1
IC50 [21]: 18.2 µM

CC(C)(Cl)C(O)COc1c2occc2cc2ccc(=O)oc12 (stereo not drawn)
EC50 ([12]; read-out: EC50): 2.25 µg/mL (≈ 6.97 µM)

O=c1oc(-c2ccccc2)cc(O)c1Sc1ccccc1
IC50 [1]: 3000 nM

CCC(c1cccc(NC(=O)[C@@H]2CCCN2C(=O)OC(C)(C)C)c1)c1c(O)c2ccccc2oc1=O (stereo partly drawn)
Ki [15]: 3600 nM

CC(=O)CC(c1ccccc1)c1c(O)c2ccc(C)c(C)c2oc1=O (stereo not drawn)
IC50 [1]: 1900 nM

CCCc1cc(=O)oc2c3c(c4c(c12)OC(C)(C)C=C4)O[C@H](C)[C@@H](C)[C@@H]3O [CALANOLIDE A]
IC50 [10]: 20 µM | EC50 [11]: 100 nM

COc1ccc2c(O)c(-c3ccccc3)c(=O)oc2c1
IC50 [21]: 23.8 µM

COc1c2ccoc2cc2oc(=O)ccc12 [BERGAPTEN]
EC50 ([12]; read-out: EC50): 0.354 µg/mL (≈ 1.64 µM)

CC1(C)OC1COc1c2ccoc2cc2oc(=O)ccc12 (stereo not drawn)
EC50 ([12]; read-out: EC50): 1 µg/mL (≈ 3.49 µM)
